Test results published in US20260217701A1, “SELECTIVE BET INHIBITORS AND USES THEREOF” (Tay Therapeutics Limited, priority 2022, published 2026).

Tested on: lupus
Assay: SLE (lupus) model: blood urea nitrogen (BUN) in serum
Format: in vivo, MRL/MpJ-Faslpr mice
Conditions: Week 19
Description: Female MRL/MpJ-Faslpr mice (The Jackson Laboratory) were used to assess the efficacy of Compound A in treating lupus. Starting when animals were 10 weeks of age, protein concentration in urine was measured using urine dipsticks.
At the start of the study, each group in the study had two animals that were 9 weeks old, and all others were 10 weeks old. Dosing of all animals with the test compounds began when the older animals were 11 weeks old. Starting on Day 1, in Groups 1-4, vehicle or Compound A was administered per os (PO) […] (QD) as described above in Table 33. […] Dosing was at a consistent time each dosing day throughout the study.
Compound A may be formulated as illustrated in Experimental Method A (see Table 2E.). […] A stock solution of Compound A in DMSO (stock solution concentration of Compound A of 40 mg/mL) was prepared and aliquots for weekly preparations were frozen at −20° C. On each preparation day, a stock solution aliquot was thawed and diluted with other vehicle components to the desired concentration. Formulated Compound A and vehicle were at room temperature for dosing.
The study began when the older animals were 11 weeks old, and concluded when the older animals were 19 weeks old. Body weight was recorded once a week, with the exception of two weight measurements taken the first week of the study (when the older animals were 11 weeks old). Proteinuria was measured in the urine of animals with urine dipsticks once a week, starting when the older animals were 10 weeks old. […] Blood samples were taken retro-orbitally at the start of the study to establish a baseline (15 animals, 3 per group), and when the older animals were 16 weeks (all animals) and when animals were 19 weeks (all animals) at the conclusion of the study. Blood urea nitrogen (BUN) was measured in all animals at study termination in blood samples. After blood collection, animals were euthanized, perfused with PBS, and the left kidneys were collected and weighed and fixed in 10% buffered formalin. Left kidneys were then processed to a formalin-fixed, paraffin-embedded (FFPE) block, and histology was analyzed in Periodic Acid-Schiff-stained sections (1 section per slide), using the criteria described in Alperovich et al., Lupus, 16:18-24 (2007). Right kidneys were weighed and snap-frozen at −80° C. Spleens were also collected and weighed. SLE in animals treated with a BET inhibitor and vehicle.
BUN provides important information about how well kidneys are working. A BUN test measures the amount of urea nitrogen in the blood and indicates how much urea has been processed by the kidneys and is indicative of renal competency. Urea is a waste product that is excreted in urine.

## Cn1cc(-c2ccccc2)c(-c2cn(C)c(=O)c3[nH]c(-c4cnn(C(F)(F)F)c4)cc23)cc1=O [Compound A, 6-methyl-4-(1-methyl-2-oxo-5-phenyl-1,2-dihydropyridin-4-yl)-2-(1-(trifluoromethyl)-1H-pyrazol-4-yl)-1,6-dihydro-7H-pyrrolo[2,3-c]pyridin-7-one]
Compound A 1 mg/kg PO QD
  BUN serum concentration: 18.0 mg/dL
Compound A 3 mg/kg PO QD
  BUN serum concentration: 16.8 mg/dL
Compound A 10 mg/kg PO QD
  BUN serum concentration: 11.0 mg/dL
Highest dose (10 mg/mL)
  Blood urea nitrogen (BUN) concentration in serum: 11 mg/dL
